Reference: US20230100193A1, “NOVEL PHARMACEUTICAL FORMULATIONS CONTAINING INDIRUBIN AND DERIVATIVES THEREOF AND METHODS OF MAKING AND USING THE SAME” (Cytodigm, Inc., priority 2017, published 2023)

Experiment: Dissolution measurement after 30 minutes in 2% Tween 20 in PBS, HPLC of supernatant
Type: physicochemical
Settings: after stirring for 30 minutes, centrifuged 14,000 rpm 15 min, HPLC 292 nm, 6-BIA 1.10 mg in 110 mL, nanoparticles approx. 1.32 mg/ml 6-BIA
Description: As a control, dissolution of 6-BIA without polymer was first tested. 1.10 mg of 6-BIA was added to 110 mL of 2% Tween 20 in PBS. After stirring for 30 minutes, 1 mL of the resulting suspension was immediately collected to an Eppendorf tube. The Eppendorf tube was centrifuged at 14,000 rpm for 15 min.
Encapsulated 6-BIA nanoparticles obtained in Example 4 were re-suspended in 2% Tween 20 in PBS to form a nanoparticle suspension containing approximately 1.32 mg/ml of 6-BIA in the nanoparticles. After stirring for 30 minutes, 1 mL of the resulting suspension was immediately collected to an Eppendorf tube. The Eppendorf tube was centrifuged at 14,000 rpm for 15 min.

6-BIA concentration in supernatant (30-minute dissolution): 3.89 µg/mL
Structure (SMILES): O=C1Nc2cc(Br)ccc2/C1=C1/Nc2ccccc2/C1=N\O [Example 6-BIA, 6-bromoindirubin-3′-oxime]
